Ends that are not written are not given here.
System: intracellular calcium ion concentration
Test: activity of increasing intracellular calcium ion concentration (method of Example 3 of WO 99/33976)
Assay type: cell-based
Conditions: compared with a standard product isolated from human placenta extract

human KiSS-1 peptide: Recombinant peptide of SEQ ID NO: 1 with C-terminal amide, cleaved from KiSS-1 peptide-CS23 fusion protein expressed in E. coli (GTSLSPPPESSGSRQQPGLSAPHSRQIPAPQGAVLVQREKDLPNYNWNSFGLRF-NH2)
activity of increasing intracellular calcium ion concentration: equivalent to that of a standard product isolated from human placenta extract
